Reference: patent US11432549B2, “Carbamoyl triazolinone based herbicide combinations and method of use” (Arysta LifeScience Corporation, priority 2009, dated 2022)
Read-outs that look alike come from different tables or passages of the source.

Columns and labels:
St. Augustine-Sapphire = conditions: in vivo
Experimental: (§1) Containers were watered as needed based on species and water usage. The greenhouse was heated to keep temperatures above 50° F. (10° C.) and ventilated as needed to keep temperatures below 100° F. (38° C.). Typical daytime temperatures in the greenhouse were 80-90° F. (27-32° C.) and nighttime temperatures were between 50-60° F. (10-16° C.). The soil employed was Promix BX potting soil. Overall moisture conditions were normal and the closest weather station was on-site. Conditions and equipment employed in this Example are tabulated below in Tables 5-1 and 5-2.
(§2) All containers were moved outdoors from the greenhouse and arranged in blocks by treatment for the herbicide applications. A single spray application was applied to each block containing four repetitions of each species for each treatment. Plants were then immediately returned to the greenhouse and irrigated with approximately ¼″ water 1-3 hrs after treatment with a hose end sprayer. Only the Poa plants were trimmed with scissors two days prior to treatment at a height of approximately 3 inches.
(§3) Transplanted tillering Kentucky Bluegrass was 5 to 6 months old, transplanted Poa annua was 5 to 6 months old. Tall fescue was seeded into the crabgrass pots. St. Augustine plants (Floratam and Saphire) were shipped from Port St. Lucie, Fla. Only two replicates of Saphire St. Augustine grass were used due to plant availability.
(§4) Referring to FIGS. 2A-B, 3A-C, 4A-C, and 5A-D, all ratings of injury or bleaching are based on a scale from 1 to 9. […] Any bleaching measurement 4 and above was considered unacceptable for desirable turf species. In injury measurements, 1 indicates no injury while 9 indicates a dead plant. Any injury measurement 4 and above was considered unacceptable for desirable turf species). Density correlates with percent cover where 1 indicates no grass while 9 indicates a full pot.
(§5) Replications employed include 4, Untreated treatments: 1, Design: Randomized Complete Block, Treatment units: US standard, Treated plot size Width: 4 feet, Treated plot size Length: 4 feet, Application volume: 50 gal/ac, Mix size: 0.5562 liters, Mix overage: 100%, Format definitions: G-All7.DEF, G-All7.FRM.
(§6) In evaluating synergism, the data from Example 5 above were converted to % of control. This was done based on the data provided on a 1-9 scale detailed in Example 5. Expected values were computed from the % of control data by the formula for expected control=[…], where A is the % of control value for herbicide A alone and B is the % of control value for herbicide B alone.

St. Augustine-Floratum = conditions: St. Augustine Floratam
Experimental: as §1, §2, §3, §4, §5, §6

Green Foxtail = assay: Ex 5/7 greenhouse spray, bleaching/injury ratings; assay type: in vivo; conditions: Green Foxtail
Experimental: as §1, §2, §4, §5, §6

Poa annua = assay: Ex 5/7 greenhouse spray, bleaching/injury ratings; assay type: in vivo; conditions: Poa
Experimental: as §1, §2, §3, §4, §5, §6

Crabgrass sp. = assay: Ex 5/7 greenhouse spray, bleaching/injury/density ratings; assay type: in vivo; conditions: Crabgrass
Experimental: as §1, §2, §3, §4, §5, §6

Digitaria ciliaris = assay: Ex 1 pot test, visual % damage; assay type: in vivo
[1] = Days After First/Last Applic. 41 41, Trt-Eval Interval 31 DA-A

What does the source list for CC(C)c1nn(C(=O)NC(C)(C)C)c(=O)n1N [2 Amicarbazone]?
TurfQuality (St. Augustine-Sapphire): 7.0 a; Bleaching (St. Augustine-Floratum; 6 DA-A): 1.0 a; Bleaching (St. Augustine-Floratum; 7 DA-A): 1.0 c; Bleaching (St. Augustine-Floratum; 10 DA-A): 1.0 c; Bleaching (St. Augustine-Floratum; 14 DA-A): 1.0 c; Bleaching (St. Augustine-Floratum; 16 DA-A): 1.0 e; Bleaching (St. Augustine-Floratum; 20 DA-A): 1.0 b; Bleaching (St. Augustine-Floratum; 31 DA-A): 1.0 c; Bleaching (St. Augustine-Floratum; [1]): 1.0 a; TurfQuality (St. Augustine-Floratum; [1]): 6.8 bc; Injury (Green Foxtail; 6 DA-A): 1.5 f; Injury (Green Foxtail; 7 DA-A): 1.5 c; Bleaching (Green Foxtail; 10 DA-A): 1.0 c; Bleaching (Green Foxtail; 14 DA-A): 1; Injury (Green Foxtail; 14 DA-A): 1.3; Bleaching (Green Foxtail; 16 DA-A): 1; Injury (Green Foxtail; 16 DA-A): 1.8; Bleaching (Green Foxtail; 20 DA-A): 1.3 c; Injury (Green Foxtail; 20 DA-A): 1.8; Injury (Green Foxtail; 24 DA-A): 2; Bleaching (Green Foxtail; 31 DA-A): 3.0 a; Injury (Green Foxtail; 31 DA-A): 2.8; Bleaching (Poa annua; 6 DA-A): 1.0 a; Bleaching (Poa annua; 7 DA-A): 1.0 a; Injury (Poa annua; 10 DA-A): 1.0 e; Bleaching (Poa annua; 14 DA-A): 1.0 b; Injury (Poa annua; 14 DA-A): 1.8; Bleaching (Poa annua; 16 DA-A): 1.0 b; Injury (Poa annua; 16 DA-A): 2.5; Bleaching (Poa annua; 20 DA-A): 1.0 a; Injury (Poa annua; 20 DA-A): 2.5; Injury (Poa annua; 24 DA-A): 2.5 cd; Injury (Poa annua; 31 DA-A): 3.3 c; Injury (Poa annua; [1]): 3.8 c; Bleaching (Crabgrass sp.; 6 DA-A): 1.3 f; Injury (Crabgrass sp.; 6 DA-A): 1.5; Bleaching (Crabgrass sp.; 7 DA-A): 1.0 c; Injury (Crabgrass sp.; 7 DA-A): 1.0 e; Bleaching (Crabgrass sp.; 10 DA-A): 1.0 c; Bleaching (Crabgrass sp.; 14 DA-A): 1.0 c; Injury (Crabgrass sp.; 14 DA-A): 1; Bleaching (Crabgrass sp.; 16 DA-A): 1.3 c; Injury (Crabgrass sp.; 16 DA-A): 1.3; Bleaching (Crabgrass sp.; 20 DA-A): 1.3; Injury (Crabgrass sp.; 20 DA-A): 1.3 c; % Crab Cvr (Crabgrass sp.; 24 DA-A): 7.8 a %; Injury (Crabgrass sp.; 24 DA-A): 1.5 c; % Crab Cvr (Crabgrass sp.; 31 DA-A): 8.3 a %; Bleaching (Crabgrass sp.; 31 DA-A): 1.0 b; % Crab Cvr (Crabgrass sp.; 41 DA-A): 9.0 a %; Bleaching (Crabgrass sp.; 41 DA-A): 1.0 a

CCc1cccc(C)c1N(COC(C)C)C(=O)CCl [Propisochlor, 2-chloro-N-(2-ethyl-6-methylphenyl)-N-[(1-methylethoxy)methyl]acetamide] was tested. Which weeding effect index (Digitaria ciliaris; 5 DAT, all tested dose rate, one-leaf stage) did it give?
The weeding effect index was “less than 50%”.

What about the percentage control (Digitaria ciliaris; single application 50 g/ha, 5 DAT) of the same compound?
Its percentage control is 28%.

And the percentage control (Digitaria ciliaris; single application 50 g/ha, 8 DAT)?
Its percentage control is 70%.

What about the percentage control (Digitaria ciliaris; single application 50 g/ha, 14 DAT) of the same compound?
The percentage control was 76%.

And the percentage control (Digitaria ciliaris; single application 50 g/ha, 21 DAT)?
Its percentage control is 88%.

What about the percentage control (Digitaria ciliaris; single application 50 g/ha, 28 DAT) of the same compound?
The percentage control was 82%.

And the percentage control (Digitaria ciliaris; single application 100 g/ha, 5 DAT)?
The percentage control was 42%.

And the percentage control (Digitaria ciliaris; single application 100 g/ha, 8 DAT)?
The percentage control was 78%.

And the percentage control (Digitaria ciliaris; single application 100 g/ha, 14 DAT)?
Its percentage control is 86%.

What about the percentage control (Digitaria ciliaris; single application 100 g/ha, 21 DAT) of the same compound?
The percentage control was 94%.

What about the percentage control (Digitaria ciliaris; single application 100 g/ha, 28 DAT) of the same compound?
The percentage control was 92%.

What about the percentage control (Digitaria ciliaris; single application 200 g/ha, 5 DAT) of the same compound?
The percentage control was 44%.

And the percentage control (Digitaria ciliaris; single application 200 g/ha, 8 DAT)?
The percentage control was 80%.

What about the percentage control (Digitaria ciliaris; single application 200 g/ha, 14 DAT) of the same compound?
The percentage control was 90%.

What about the percentage control (Digitaria ciliaris; single application 200 g/ha, 21 DAT) of the same compound?
The percentage control was 98%.

And the percentage control (Digitaria ciliaris; single application 200 g/ha, 28 DAT)?
Its percentage control is 98%.

For CC(C)c1nn(C(=O)NC(C)(C)C)c(=O)n1N [3 Amicarbazone], which TurfQuality (St. Augustine-Sapphire) is on record?
The TurfQuality was 7.5 a.

And the Bleaching (St. Augustine-Floratum; 6 DA-A)?
The Bleaching was 1.0 a.

And the Bleaching (St. Augustine-Floratum; 7 DA-A)?
Its Bleaching is 1.0 c.

What about the Bleaching (St. Augustine-Floratum; 10 DA-A) of the same compound?
The Bleaching was 1.0 c.

And the Bleaching (St. Augustine-Floratum; 14 DA-A)?
Its Bleaching is 1.0 c.

And the Bleaching (St. Augustine-Floratum; 16 DA-A)?
The Bleaching was 1.3 e.

What about the Bleaching (St. Augustine-Floratum; 20 DA-A) of the same compound?
Its Bleaching is 1.3 b.

And the Bleaching (St. Augustine-Floratum; 31 DA-A)?
Its Bleaching is 1.0 c.

And the Bleaching (St. Augustine-Floratum; [1])?
The Bleaching was 1.0 a.

What about the TurfQuality (St. Augustine-Floratum; [1]) of the same compound?
The TurfQuality was 7.3 ab.

What about the Injury (Green Foxtail; 6 DA-A) of the same compound?
Its Injury is 3.8 de.

What about the Injury (Green Foxtail; 7 DA-A) of the same compound?
The Injury was 3.5 b.

And the Bleaching (Green Foxtail; 10 DA-A)?
Its Bleaching is 1.0 c.

And the Bleaching (Green Foxtail; 14 DA-A)?
Its Bleaching is 1.

And the Injury (Green Foxtail; 14 DA-A)?
The Injury was 2.5 f.

What about the Bleaching (Green Foxtail; 16 DA-A) of the same compound?
The Bleaching was 1.

What about the Injury (Green Foxtail; 16 DA-A) of the same compound?
The Injury was 2.8 cd.

What about the Bleaching (Green Foxtail; 20 DA-A) of the same compound?
Its Bleaching is 1.3 c.

What about the Injury (Green Foxtail; 20 DA-A) of the same compound?
Its Injury is 3.5 cd.

What about the Injury (Green Foxtail; 24 DA-A) of the same compound?
Its Injury is 3.8 c.

And the Bleaching (Green Foxtail; 31 DA-A)?
The Bleaching was 3.3 a.

And the Injury (Green Foxtail; 31 DA-A)?
The Injury was 5.3 bc.

And the Bleaching (Poa annua; 6 DA-A)?
Its Bleaching is 1.0 a.

What about the Bleaching (Poa annua; 7 DA-A) of the same compound?
The Bleaching was 1.0 a.

And the Injury (Poa annua; 10 DA-A)?
Its Injury is 3.5 bc.

And the Bleaching (Poa annua; 14 DA-A)?
Its Bleaching is 1.8 b.

And the Injury (Poa annua; 14 DA-A)?
The Injury was 4.8 b.

What about the Bleaching (Poa annua; 16 DA-A) of the same compound?
The Bleaching was 2.0 ab.

What about the Injury (Poa annua; 16 DA-A) of the same compound?
Its Injury is 5.0 bc.

What about the Bleaching (Poa annua; 20 DA-A) of the same compound?
Its Bleaching is 2.0 a.

And the Injury (Poa annua; 20 DA-A)?
Its Injury is 5.5 c.

What about the Injury (Poa annua; 24 DA-A) of the same compound?
Its Injury is 5.3 b.

What about the Injury (Poa annua; 31 DA-A) of the same compound?
The Injury was 7.0 ab.

What about the Injury (Poa annua; [1]) of the same compound?
The Injury was 7.5 ab.

What about the Bleaching (Crabgrass sp.; 6 DA-A) of the same compound?
Its Bleaching is 1.0 f.

And the Injury (Crabgrass sp.; 6 DA-A)?
The Injury was 1.

What about the Bleaching (Crabgrass sp.; 7 DA-A) of the same compound?
Its Bleaching is 1.0 c.

What about the Injury (Crabgrass sp.; 7 DA-A) of the same compound?
Its Injury is 1.0 e.

And the Bleaching (Crabgrass sp.; 10 DA-A)?
The Bleaching was 1.0 c.

What about the Bleaching (Crabgrass sp.; 14 DA-A) of the same compound?
The Bleaching was 1.0 c.

And the Injury (Crabgrass sp.; 14 DA-A)?
Its Injury is 1.

What about the Bleaching (Crabgrass sp.; 16 DA-A) of the same compound?
Its Bleaching is 1.0 c.

What about the Injury (Crabgrass sp.; 16 DA-A) of the same compound?
Its Injury is 1.5.

What about the Bleaching (Crabgrass sp.; 20 DA-A) of the same compound?
Its Bleaching is 1.

And the Injury (Crabgrass sp.; 20 DA-A)?
Its Injury is 1.5 c.

And the “% Crab Cvr” value (Crabgrass sp.; 24 DA-A)?
The value was 6.3 b %.

And the Injury (Crabgrass sp.; 24 DA-A)?
The Injury was 1.5 c.

What about the “% Crab Cvr” value (Crabgrass sp.; 31 DA-A) of the same compound?
The value was 6.3 b %.

What about the Bleaching (Crabgrass sp.; 31 DA-A) of the same compound?
The Bleaching was 1.0 b.

What about the “% Crab Cvr” value (Crabgrass sp.; 41 DA-A) of the same compound?
The value was 6.8 b %.

What about the Bleaching (Crabgrass sp.; 41 DA-A) of the same compound?
Its Bleaching is 1.0 a.
